In PubChem BioAssay AID248 (DTP/NCI, 2004):
Values joined by “and” are separate entries in the source; they are usually repeats but may differ in a detail not shown here. Identical values can stand only once. Toxic doses and inconclusive results are not listed. Cut-off read from the data, not from the text of the source: active = T/C of 150% or more; inactive = T/C below 125%.

System: L1210 leukemia ip in BDF1 mice, survival T/C
Test: NCI In Vivo Anticancer Drug Screen. Data for tumor model L1210 Leukemia (intraperitoneal) in B6D2F1 (BDF1) mice
Settings: endpoint: mean survival time, higher = longer survival
Outline: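 In this screen, tumor-bearing mice given compound are compared to those given vehicle, and their survival values are reported as a treated-to-control quotient.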

[1] = dose: 50.0 mg/kg/injection, schedule: Q01DX009 (ip), vehicle: Klucel (hydroxypropylcellulose) (HPC)
[2] = dose: 100.0 mg/kg/injection, schedule: Q04DX003 (ip), vehicle: Klucel (hydroxypropylcellulose) (HPC)
[3] = dose: 100.0 mg/kg/injection, schedule: Q04DX003 (ip), vehicle: saline
[4] = dose: 200.0 mg/kg/injection, schedule: Q01DX009 (ip), vehicle: Klucel (hydroxypropylcellulose) (HPC)
[5] = dose: 200.0 mg/kg/injection, schedule: Q04DX003 (ip), vehicle: Klucel (hydroxypropylcellulose) (HPC)
[6] = dose: 400.0 mg/kg/injection, schedule: Q01DX009 (ip), vehicle: Klucel (hydroxypropylcellulose) (HPC)
[7] = dose: 50.0 mg/kg/injection, schedule: Q01DX001 (ip), vehicle: saline
[8] = dose: 100.0 mg/kg/injection, schedule: Q01DX001 (ip), vehicle: saline
[9] = dose: 200.0 mg/kg/injection, schedule: Q01DX001 (ip), vehicle: saline
[10] = dose: 100.0 mg/kg/injection, schedule: Q01DX009 (ip), vehicle: saline
[11] = dose: 200.0 mg/kg/injection, schedule: Q01DX009 (ip), vehicle: saline
[12] = dose: 400.0 mg/kg/injection, schedule: Q01DX009 (ip), vehicle: saline
[13] = dose: 400.0 mg/kg/injection, schedule: Q04DX003 (ip), vehicle: Klucel (hydroxypropylcellulose) (HPC)
[14] = dose: 50.0 mg/kg/injection, schedule: Q01DX009 (ip), vehicle: saline with Tween-80
[15] = dose: 100.0 mg/kg/injection, schedule: Q01DX009 (ip), vehicle: saline with Tween-80
[16] = dose: 100.0 mg/kg/injection, schedule: Q04DX002 (ip), vehicle: Klucel (hydroxypropylcellulose) (HPC)
[17] = dose: 100.0 mg/kg/injection, schedule: Q04DX002 (ip), vehicle: saline with Tween-80
[18] = dose: 200.0 mg/kg/injection, schedule: Q01DX009 (ip), vehicle: saline with Tween-80
[19] = dose: 200.0 mg/kg/injection, schedule: Q04DX002 (ip), vehicle: Klucel (hydroxypropylcellulose) (HPC)
[20] = dose: 200.0 mg/kg/injection, schedule: Q04DX002 (ip), vehicle: saline with Tween-80
[21] = dose: 400.0 mg/kg/injection, schedule: Q04DX002 (ip), vehicle: Klucel (hydroxypropylcellulose) (HPC)
[22] = dose: 400.0 mg/kg/injection, schedule: Q04DX002 (ip), vehicle: saline with Tween-80
[23] = dose: 100.0 mg/kg/injection, schedule: Q01DX009 (ip), vehicle: Klucel (hydroxypropylcellulose) (HPC)
[24] = dose: 25.0 mg/kg/injection, schedule: Q04DX003 (ip), vehicle: saline
[25] = dose: 100.0 mg/kg/injection, schedule: Q01DX001 (ip), vehicle: saline with Tween-80
[26] = dose: 200.0 mg/kg/injection, schedule: Q01DX001 (ip), vehicle: saline with Tween-80
[27] = dose: 400.0 mg/kg/injection, schedule: Q01DX001 (ip), vehicle: saline with Tween-80

Measured: T/C

O=[N+]([O-])c1ccc(N/N=C\C2CC=C3c4ccccc4CCC3C2/C=N\Nc2ccc([N+](=O)[O-])cc2[N+](=O)[O-])c([N+](=O)[O-])c1 (stereo not drawn)
inactive: dose: 50.0 mg/kg/injection, schedule: Q01DX001 (ip), vehicle: carboxymethylcellulose (CMC) 89 % of control | dose: 100.0 mg/kg/injection, schedule: Q01DX001 (ip), vehicle: carboxymethylcellulose (CMC) 93 % of control | dose: 200.0 mg/kg/injection, schedule: Q01DX001 (ip), vehicle: carboxymethylcellulose (CMC) 103 % of control | dose: 400.0 mg/kg/injection, schedule: Q01DX001 (ip), vehicle: carboxymethylcellulose (CMC) 108 % of control

CN(C)N=Nc1cn[nH]c1C(N)=O
inactive: dose: 25.0 mg/kg/injection, schedule: Q01DX009 (ip), vehicle: Klucel (hydroxypropylcellulose) (HPC) 117 % of control | [1] 112 % of control and 117 % of control and 118 % of control | [2] 96 % of control and 121 % of control | [3] 111 % of control | dose: 178.0 mg/kg/injection, schedule: Q01DX009 (ip), vehicle: saline 87 % of control | [4] 105 % of control and 113 % of control | [5] 98 % of control | dose: 200.0 mg/kg/injection, schedule: Q04DX003 (ip), vehicle: saline 119 % of control | dose: 267.0 mg/kg/injection, schedule: Q01DX009 (ip), vehicle: saline 91 % of control | [6] 103 % of control

CCCCCCCCN(CC)CC
inactive: [7] 88 % of control | [8] 90 % of control | [9] 90 % of control

N#Cc1c2c(c(O)[nH]c1=O)CCCC2
inactive: [10] 97 % of control | [2] 94 % of control | [11] 97 % of control | [5] 102 % of control | [12] 101 % of control | [13] 96 % of control

CC(C(=O)c1ccccc1)c1ccccc1 (stereo not drawn)
inactive: [14] 97 % of control | [15] 87 % of control | [16] 106 % of control | [17] 90 % of control | [18] 87 % of control | [19] 91 % of control | [20] 107 % of control | [21] 98 % of control | [22] 101 % of control

Cc1cc(C)cc(OCC(=O)O)c1
inactive: [2] 95 % of control | [5] 90 % of control | [13] 106 % of control

CC1(C)N=C(c2ccccc2)C(c2ccccc2)=N1
inactive: [23] 105 % of control | [2] 108 % of control | [4] 98 % of control | [5] 97 % of control | [13] 115 % of control

OCC(O)C(O)C(O)C(c1ccc(F)cc1)c1ccc(F)cc1 (stereo not drawn)
inactive: [7] 97 % of control | [8] 100 % of control | [9] 100 % of control | dose: 400.0 mg/kg/injection, schedule: Q01DX001 (ip), vehicle: saline 103 % of control

Nc1nc2nc(C(=O)O)cnc2c(=O)[nH]1
inactive: dose: 12.5 mg/kg/injection, schedule: Q04DX003 (ip), vehicle: saline 95 % of control | [24] 102 % of control

c1ccc([P+](Cc2nc3ccccc3[nH]2)(c2ccccc2)c2ccccc2)cc1
inactive: dose: 25.0 mg/kg/injection, schedule: Q01DX009 (ip), vehicle: saline 92 % of control | [24] 97 % of control | [1] 102 % of control | dose: 50.0 mg/kg/injection, schedule: Q04DX003 (ip), vehicle: saline 92 % of control | [23] 100 % of control | [3] 94 % of control

CC(C)C(=O)CCC1CCCCC1
inactive: [25] 100 % of control | [26] 100 % of control | [27] 97 % of control

CN1CCN=C1c1ccc(NC(=O)c2ccc(C(=O)Nc3ccc(C4=NCCN4C)cc3)c([N+](=O)[O-])c2)cc1
inactive: dose: 1.5 mg/kg/injection, schedule: Q01DX Z (ip), vehicle: carboxymethylcellulose (CMC) 96 % of control | dose: 3.0 mg/kg/injection, schedule: Q01DX Z (ip), vehicle: carboxymethylcellulose (CMC) 101 % of control | dose: 6.0 mg/kg/injection, schedule: Q01DX Z (ip), vehicle: carboxymethylcellulose (CMC) 90 % of control

CC1C(c2ccccc2)N1P(=O)(c1ccccc1)c1ccccc1 (stereo not drawn)
inactive: dose: 100.0 mg/kg/injection, schedule: Q04DX003 (sc), vehicle: carboxymethylcellulose (CMC) 102 % of control | dose: 200.0 mg/kg/injection, schedule: Q04DX003 (sc), vehicle: carboxymethylcellulose (CMC) 104 % of control | dose: 400.0 mg/kg/injection, schedule: Q04DX003 (sc), vehicle: carboxymethylcellulose (CMC) 98 % of control

C=C(C)Cc1cnc(SCc2ccccc2)[nH]c1=O
inactive: [23] 93 % of control | [2] 97 % of control | [4] 91 % of control | [5] 103 % of control | [6] 94 % of control | [13] 104 % of control

CCc1n[nH]c(C(N)=O)c1O
inactive: dose: 100.0 mg/kg/injection, schedule: Q01DX001 (ip), vehicle: gum acacia 103 % of control | [10] 108 % of control | dose: 200.0 mg/kg/injection, schedule: Q01DX001 (ip), vehicle: gum acacia 101 % of control | [11] 104 % of control | dose: 400.0 mg/kg/injection, schedule: Q01DX001 (ip), vehicle: gum acacia 106 % of control | [12] 100 % of control

C1=CC2c3ccccc3C1c1ccccc12
inactive: dose: 100.0 mg/kg/injection, schedule: Q01DX009 (sc), vehicle: olive oil, sesame oil, peanut oil 101 % of control | dose: 100.0 mg/kg/injection, schedule: Q04DX003 (sc), vehicle: olive oil, sesame oil, peanut oil 102 % of control | dose: 200.0 mg/kg/injection, schedule: Q01DX009 (sc), vehicle: olive oil, sesame oil, peanut oil 103 % of control | dose: 200.0 mg/kg/injection, schedule: Q04DX003 (sc), vehicle: olive oil, sesame oil, peanut oil 95 % of control | dose: 400.0 mg/kg/injection, schedule: Q01DX009 (sc), vehicle: olive oil, sesame oil, peanut oil 102 % of control | dose: 400.0 mg/kg/injection, schedule: Q04DX003 (sc), vehicle: olive oil, sesame oil, peanut oil 93 % of control

COc1ccc(OC)c(NC(=O)Nc2ccc(I)cc2)c1
inactive: [16] 96 % of control | [19] 96 % of control | [21] 107 % of control

CC1CP(=O)(Cc2ccccc2)C(C)(c2ccccc2)C1=O (stereo not drawn)
inactive: [2] 93 % of control | [5] 100 % of control | [13] 100 % of control

O=C(N/N=C/c1ccco1)c1ccccc1
inactive: [14] 94 % of control and 103 % of control | [25] 106 % of control | [15] 100 % of control and 103 % of control | [17] 96 % of control | dose: 100.0 mg/kg/injection, schedule: Q04DX003 (ip), vehicle: saline with Tween-80 98 % of control | [26] 101 % of control | [18] 103 % of control and 87 % of control | [20] 97 % of control | dose: 200.0 mg/kg/injection, schedule: Q04DX003 (ip), vehicle: saline with Tween-80 105 % of control | [27] 114 % of control | [22] 110 % of control | dose: 400.0 mg/kg/injection, schedule: Q04DX003 (ip), vehicle: saline with Tween-80 103 % of control

COc1ccc(-c2c(CC(=O)O)c3cc(OC)ccc3n2Cc2ccc(Cl)cc2)cc1
inactive: dose: 65.0 mg/kg/injection, schedule: Q01DX Z (ip), vehicle: carboxymethylcellulose (CMC) 94 % of control | dose: 125.0 mg/kg/injection, schedule: Q01DX Z (ip), vehicle: carboxymethylcellulose (CMC) 98 % of control | dose: 250.0 mg/kg/injection, schedule: Q01DX Z (ip), vehicle: carboxymethylcellulose (CMC) 107 % of control | dose: 500.0 mg/kg/injection, schedule: Q01DX Z (ip), vehicle: carboxymethylcellulose (CMC) 94 % of control | dose: 750.0 mg/kg/injection, schedule: Q01DX Z (ip), vehicle: carboxymethylcellulose (CMC) 90 % of control | dose: 875.0 mg/kg/injection, schedule: Q01DX Z (ip), vehicle: carboxymethylcellulose (CMC) 91 % of control
